Kd and stoichiometry N data for 3 molecules are collected here from article PMC2806516 (Biochemistry, 2010).

Where only a bound is given, the exact number is not on record here.

Assay [1] deals with T1, HpaC (Pseudomonas aeruginosa, UniProt Q9HWT6).
T1 sequence (Q9HWT6 1-170): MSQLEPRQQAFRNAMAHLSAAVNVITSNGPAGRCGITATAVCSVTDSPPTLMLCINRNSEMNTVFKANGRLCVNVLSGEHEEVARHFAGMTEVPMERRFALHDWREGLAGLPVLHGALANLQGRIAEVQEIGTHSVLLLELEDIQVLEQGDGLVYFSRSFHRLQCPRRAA
Nature of the assay: stopped-flow. In kind it is binding.

Assay [2] deals with T2, HpaA (Pseudomonas aeruginosa, UniProt Q9HWT7).
T2 sequence (Q9HWT7 1-520): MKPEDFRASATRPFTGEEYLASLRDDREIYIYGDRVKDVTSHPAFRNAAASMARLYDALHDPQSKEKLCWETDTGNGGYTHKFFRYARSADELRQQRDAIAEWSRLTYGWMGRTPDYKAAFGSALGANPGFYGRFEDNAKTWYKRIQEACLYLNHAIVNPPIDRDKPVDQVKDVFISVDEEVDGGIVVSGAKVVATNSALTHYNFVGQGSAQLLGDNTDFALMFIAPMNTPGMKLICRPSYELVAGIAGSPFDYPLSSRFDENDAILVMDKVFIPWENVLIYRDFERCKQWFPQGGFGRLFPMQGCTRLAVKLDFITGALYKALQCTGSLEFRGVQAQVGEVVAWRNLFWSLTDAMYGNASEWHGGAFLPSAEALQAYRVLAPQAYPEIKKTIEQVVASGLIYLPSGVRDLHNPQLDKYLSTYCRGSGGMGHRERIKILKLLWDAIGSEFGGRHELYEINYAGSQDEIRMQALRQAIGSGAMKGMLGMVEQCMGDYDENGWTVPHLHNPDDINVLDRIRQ
The assay can be described thus: stopped-flow. In kind it is binding.

The target in assay [3] is T1, HpaC. The assay can be described thus: fluorimetric titration. The class given is binding.
For assay [4], the target named is T2, HpaA. The assay can be described thus: absorption spectral titration. The class given is binding.
For assay [5], the target named is HpaA, oxygenase of p-hydroxyphenylacetate 3-hydroxylase (HPAH) from Pseudomonas aeruginosa, N-terminal His-tagged (P. aeruginosa). Nature of the assay: SEC.

As to `Cc1cc2c(cc1C)N(C[C@H](O)[C@H](O)[C@H](O)COP(=O)(O)OP(=O)(O)OC[C@H]1O[C@@H](n3cnc4c(N)ncnc43)[C@H](O)[C@@H]1O)c1[nH]c(=O)[nH]c(=O)c1N2` [FADH^−], the equilibrium dissociation constant (Kd) in assay [1] is roughly 20 µM; in assay [2], no more than 2 µM.

In the case of `Cc1cc2nc3c(=O)[nH]c(=O)nc-3n(C[C@H](O)[C@H](O)[C@H](O)COP(=O)(O)OP(=O)(O)OC[C@H]3O[C@@H](n4cnc5c(N)ncnc54)[C@H](O)[C@@H]3O)c2cc1C` [FAD], the Kd is 3 µM in assay [3] and no less than 250 µM in assay [4].

Take “HpaA, oxygenase of p-hydroxyphenylacetate 3-hydroxylase (HPAH) from Pseudomonas aeruginosa, N-terminal His-tagged (enzyme)”: the stoichiometry N in assay [5] was determined as 2.
